Measured values as given in US7214470B2, “Fluorine-containing ethylenic monomer having hydroxyl group or fluoroalkyl carbonyl group and fluorine-containing polymer prepared by polymerization of same” (priority 2001, dated 2007).

Assay: Measurement of pKa by titration with NaOH solution in water/acetone
Format: physicochemical
Conditions: for Measured pKa Exp. Ex. 2: monomer, titration with NaOH solution in water/acetone, room temperature
Procedure: In a solution of water/acetone of 10/15 ml was put 0.7865 g of CH2═CHCH2C(CF3)2OH, followed by stirring at room temperature. After it was confirmed that the solution became homogeneous, titration was carried out with a 0.2 mol/liter NaOH solution. A titration curve was obtained by adding a NaOH solution dropwise in increments of 0.15 ml and recording a pH value at every addition. An equivalence point was determined by an inflection point (maximum differential value of titration curve=dpH/dml) of the titration curve. In this case, the equivalence point was 14.5 ml. […] From a titration curve of water/acetone solution and aqueous solution which had been measured previously as a blank solution, a difference in a pH value derived from an electric potential difference between the solutions at titration of 7.25 ml was 1.29.
In case of titration of 1.0865 g of CH2═CHCH2C(CF3)2OH by the same procedures as above, an equivalence point was 20.15 ml and a half of equivalence point was 10.08 ml. A pH value at a half of the equivalence point was 10.78.
When the same procedures as above were carried out except that about 0.05 mol/liter NaOH solution was used as a titration solution, an equivalence point of 0.115 g of CH2═CHCH2C(CF3)2OH was 8.00 ml and a half of equivalence point was 4.00 ml. A pH value at this time was 10.92.
From those experiments carried out three times, a pKa value of CH2═CHCH2C(CF3)2OH was determined as 9.6.
With respect to the various fluorine-containing ethylenic monomers having OH group shown in Table 1, a pKa value was measured by the same procedures as above.

Molecule | pKa | Measured pKa Exp. Ex. 2 | pKa value (single titration) (0.115 g, about 0.05 mol/liter NaOH) | pKa value (single titration) (0.7865 g, 0.2 mol/liter NaOH, water/acetone 10/15 ml) | pKa value (single titration) (1.0865 g, 0.2 mol/liter NaOH)
C=C(F)C(O)(C(F)(F)F)C(F)(F)F [Ex. 4, 1,1-bistrifluoromethyl-2-fluoro-2-propene-1-ol] | 8 | – | – | – | –
OC(C(F)=C(F)F)(C(F)(F)F)C(F)(F)F [Prep. Ex. 1, 1,1-bistrifluoromethyl-2,3,3-trifluoro-2-propene-1-ol] | 7.1 | – | – | – | –
C=C(F)C(F)(F)OC(F)(C(F)(F)F)C(F)(F)OC(F)(CO)C(F)(F)F (stereo not shown) [perfluoro-(1,1,1,9,9-tetrahydro-2,5-bistrifluoromethyl-3,6-dioxanonenol)] | – | 12.6 | – | – | –
CH2═CHCH2C(CF3)2OH | – | 9.6 | 9.54 | 9.69 | 9.64
